Data reported in patent publication EP1316317A1, “Hydrosoluble mixtures of cyproterone and/or an ester of it, processes to obtain them and uses thereof” (University of Liege, priority 2001, dated 2003).
“And” between values parts separate entries of the source, which are not always exact repeats. Identical values can stand only once.

Experiments:
[1] = Stability of CPA in aqueous solution, alone or as complex with RMβCD (HPLC); format: physicochemical
Description: Les complexes sont formés par ajout de 2 ml de solution aqueuse de RMβCD à 30 mg de CPA. Des solutions de RMβCD à différentes concentrations ont été utilisées: 12,5; 25; 50; 100 et 200 mM. Après agitation pendant 24 heures à 25°C, ces solutions sont filtrées sur filtre en PVDF de 0,45 µm (Millipore, Millex HV 0,45 µm).
Les solutions de référence de CPA sont préparées en ajoutant 2 ml de solution aqueuse à 30 mg de CPA. Après agitation pendant 24 heures à 25°C, ces solutions sont filtrées sur filtre en PVDF de 0,45 µm (Millipore, Millex HV 0,45 µm).
(§1) Les échantillons sont conservés dans des conditions ambiantes (20°C) pendant 3 mois.
La concentration en CPA contenu dans les solutions de CPA seul ou sous forme de complexe est dosée par HPLC au temps 0, après 1 mois et après 3 mois.
(§2) Les conditions chromatographiques sont telles qu'utilisées précédemment.

[2] = Adsorption of CPA on cellulose and PVDF filters (recovery after filtration); format: physicochemical; conditions: CPA 2 µg/ml (100 µg/ml diluted 50-fold), CD 10 mM
Description: Les complexes ont été préparés en diluant 50 fois une solution mère de CPA à 100 µg/ml dans un mélange eau/acétonitrile (ACN) 50/50, avec une solution aqueuse de cyclodextrine à 10 mM. Les différentes cyclodextrines utilisées sont la β-CD, la γCD, l'HPβCD, l'HPγCD et la RMβCD. Ces échantillons sont agités au vortex pendant au moins 1 minute. Etant donné la faible proportion de CPA par rapport à la concentration en cyclodextrine et le CPA étant déjà solubilisé dans le milieu, il n'est pas nécessaire d'agiter 24 heures à 25°C pour obtenir le complexe, ce dernier étant formé très rapidement.
Une solution de référence contenant seulement du CPA est préparée en diluant 50 fois la solution mère de CPA à 100 µg/ml dans un mélange eau/acétonitrile 50/50, avec de l'eau purifiée.
Chaque essai est répété à trois reprises. Ces échantillons sont ensuite filtrés en partie sur filtre en ester de cellulose et en partie sur filtre en PVDF. Les échantillons sont dosés avant et après filtration de façon à pouvoir calculer le pourcentage de récupération après filtration.

[3] = water; background statement, no method given; cited from earlier work
[4] = Stability of CPA in aqueous solution, alone or as complex with βCD (HPLC); format: physicochemical
Description: Un complexe est formé par ajout de 2 ml de solution aqueuse de βCD 10 mM à 20 mg de CPA. Après agitation pendant 24 heures à 25°C, ces solutions sont filtrées sur filtre en PVDF de 0,45 µm (Millipore, Millex HV 0,45 µm). La formation du complexe est effectuée sur 8 échantillons différents.
Les solutions de référence de CPA sont préparées en ajoutant 2 ml de solution aqueuse à 20 mg de CPA. Après agitation pendant 24 heures à 25°C, ces solutions sont filtrées sur filtre en PVDF de 0,45 µm. 8 échantillons sont préparés.
as §1
La concentration en CPA contenue dans les solutions de CPA seul ou sous forme de complexe est dosée par HPLC au temps 0, après 1 mois et après 3 mois.
L'appareillage et les conditions chromatographiques sont ceux tels qu'utilisés dans l'Exemple 3.

[5] = Phase-solubility diagram of CPA in aqueous cyclodextrin solutions (excess CPA, HPLC assay of filtrate); format: physicochemical; conditions: for Concentration en CPA (Solubilité du CPA en présence de HPβCD) / Concentration en CPA (Solubilité du CPA en présence de HPγCD) / Concentration en CPA (Solubilité du CPA en présence de RMβCD) / Concentration en CPA (Solubilité du CPA en présence de SBEβCD) / Concentration en CPA (Solubilité du CPA en présence de βCD) / Concentration en CPA (Solubilité du CPA en présence de γCD): 24 h at 25°C
Description: Les diagrammes de solubilité sont effectués en ajoutant un excès de CPA à des solutions de CD de concentration croissante. Après 24 heures d'agitation dans des bains thermostatisés à 25°C, ces solutions sont filtrées et la quantité de CPA solubilisée est dosée par HPLC.
Pesée de minimum 30 mg de CPA et ajout de 2 ml de solution de CD. Pour chaque concentration de CD, les essais sont répétés au moins deux fois. Des essais sont également effectués avec une solution aqueuse sans CD.
Les échantillons sont mis en agitation dans des bains thermostatisés à 25°C pendant 24 heures. Ensuite, ces échantillons sont filtrés sur filtre en polyvinyldifluoridène (PVDF) de 0,45 µm (Millipore, Millex HV 0,45 µm) et la concentration de CPA dans les filtrats est dosée par HPLC.
• Echantillonneur automatique Merck L-7200, Détecteur UV Merck L-7400, Pompe Merck L-7100 et intégrateur Merck D-2500.
• Colonne : Lichrospher RP18 (5 µm) 125 mm • Phase mobile : ACN/H2O 50/50 • Débit : 1,5 ml/min • Température : 25°C • Longueur d'onde : 282 nm • Etalon interne : propylparaben.

[6] = Stability of CPA in alkaline medium (stress conditions), alone or complexed with CDs (HPLC); format: physicochemical; conditions: CD 100 mM
Description: Les complexes sont préparés en ajoutant 2 ml de solution aqueuse de CD à 20 mg de CPA. Les solutions de CD utilisées pour préparer ces complexes sont des solutions de HPβCD, de HPγCD ou de RMβCD à une concentration de 100 mM. Après agitation pendant 24 heures à 25°C, ces solutions sont filtrées sur filtre en PVDF de 0,45 µm (Millipore, Millex HV 0,45 µm).
Les solutions de référence de CPA sont préparées en ajoutant 2 ml de solution aqueuse à 20 mg de CPA. Après agitation pendant 24 heures à 25°C, ces solutions sont filtrées sur filtre en PVDF de 0,45 µm (Millipore, Millex HV 0,45 µm).
Chaque essai est répété à 3 reprises et les échantillons sont conservés dans des étuves à température contrôlée à 25°C pendant 1 mois.
La concentration en CPA contenu dans les solutions de CPA seul ou sous forme de complexe est dosée par HPLC au temps 0 et après 1 mois et le pH des solutions est mesuré après 1 mois.
as §2
Après 1 mois, la libération de substances alcalines provenant des flacons a communiqué un pH alcalin aux solutions. Ce pH a été mesuré et varie entre 8 et 9 dans les différentes solutions. Ce pH alcalin a provoqué la dégradation de l'acétate de cyprotérone, par hydrolyse de la fonction ester.

[7] = CPA concentration at time 0, 1440 min

Conc. t1 ([1]; CPA concentration after 1 month at ambient conditions (20°C)): 2,2 µg/ml
Conc. t0 [1, 7]: 2,7 µg/ml
Pourcentage t1 mois ([1]; CPA remaining after 1 month at 20°C, 43800 min): 83,7%
Pourcentage t3 mois ([1]; CPA remaining after 3 months at 20°C, 131400 min): 77,1%
Pourcentage de CPA récupéré après filtration sur PVDF, Moyenne ([2]; PVDF filter): 88,7%
Pourcentage de CPA récupéré après filtration sur acétate de cellulose, Moyenne ([2]; cellulose filter): 2,9%
CPA retrouvé après 1 mois, Conc. ([4]; after 1 month at ambient conditions (20°C)): 2,2 µg/ml
CPA retrouvé après 1 mois, Pourcentage moyen CPA ([4]; after 1 month at ambient conditions (20°C), relative to time 0, 43800 min): 84,6%
CPA retrouvé après 3 mois, Conc. ([4]; after 3 months at ambient conditions (20°C)): 2,1 µg/ml
CPA retrouvé après 3 mois, Pourcentage moyen CPA ([4]; after 3 months at ambient conditions (20°C), relative to time 0, 131400 min): 79,3%
CPA au temps 0, Conc. ([4]; time 0, βCD 10 mM for the complex, n=8, 1440 min): 2,6 µg/ml
Concentration en CPA (Solubilité du CPA en présence de HPβCD) ([5]; HPβCD 25 mM): 308,0 µg/ml
Concentration en CPA (Solubilité du CPA en présence de HPβCD) ([5]; HPβCD 50 mM): 629,9 µg/ml
Concentration en CPA (Solubilité du CPA en présence de HPβCD) ([5]; HPβCD 100 mM): 1188,6 µg/ml
Concentration en CPA (Solubilité du CPA en présence de HPβCD) ([5]; HPβCD 200 mM): 2648,2 µg/ml
Concentration en CPA (Solubilité du CPA en présence de HPβCD) ([5]; HPβCD 12,5 mM): 147,1 µg/ml
Concentration en CPA (Solubilité du CPA en présence de HPγCD) ([5]; HPγCD 25 mM): 282,5 µg/ml
Concentration en CPA (Solubilité du CPA en présence de HPγCD) ([5]; HPγCD 50 mM): 578,9 µg/ml
Concentration en CPA (Solubilité du CPA en présence de HPγCD) ([5]; HPγCD 100 mM): 1512,0 µg/ml
Concentration en CPA (Solubilité du CPA en présence de HPγCD) ([5]; HPγCD 200 mM): 4291,1 µg/ml
Concentration en CPA (Solubilité du CPA en présence de HPγCD) ([5]; HPγCD 12,5 mM): 118,7 µg/ml
Concentration en CPA (Solubilité du CPA en présence de RMβCD) ([5]; RMβCD 25 mM): 430,9 µg/ml
Concentration en CPA (Solubilité du CPA en présence de RMβCD) ([5]; RMβCD 50 mM): 1169,9 µg/ml
Concentration en CPA (Solubilité du CPA en présence de RMβCD) ([5]; RMβCD 100 mM): 3222,1 µg/ml
Concentration en CPA (Solubilité du CPA en présence de RMβCD) ([5]; RMβCD 200 mM): 9598,7 µg/ml
Concentration en CPA (Solubilité du CPA en présence de RMβCD) ([5]; RMβCD 12,5 mM): 176,9 µg/ml
Concentration en CPA (Solubilité du CPA en présence de SBEβCD) ([5]; SBEβCD 25 mM): 461,8 µg/ml
Concentration en CPA (Solubilité du CPA en présence de SBEβCD) ([5]; SBEβCD 50 mM): 860,9 µg/ml
Concentration en CPA (Solubilité du CPA en présence de SBEβCD) ([5]; SBEβCD 100 mM): 1475,2 µg/ml
Concentration en CPA (Solubilité du CPA en présence de SBEβCD) ([5]; SBEβCD 200 mM): 2034,1 µg/ml
Concentration en CPA (Solubilité du CPA en présence de SBEβCD) ([5]; SBEβCD 12,5 mM): 243,9 µg/ml
solubilité du CPA sans cyclodextrine ([5]; water without cyclodextrin, 24 h agitation at 25°C, 1440 min): < 3 µg/ml and 2,6 µg/ml
Concentration en CPA (Solubilité du CPA en présence de βCD) ([5]; βCD 5 mM): 28,8 µg/ml
Concentration en CPA (Solubilité du CPA en présence de βCD) ([5]; βCD 10 mM): 56,7 µg/ml
Concentration en CPA (Solubilité du CPA en présence de βCD) ([5]; βCD 15 mM): 86,5 µg/ml
Concentration en CPA (Solubilité du CPA en présence de γCD) ([5]; γCD 25 mM): 436,6 µg/ml
Concentration en CPA (Solubilité du CPA en présence de γCD) ([5]; γCD 50 mM): 1041,0 µg/ml
Concentration en CPA (Solubilité du CPA en présence de γCD) ([5]; γCD 100 mM): 2368,9 µg/ml
Concentration en CPA (Solubilité du CPA en présence de γCD) ([5]; γCD 200 mM (so in the source)): 2266,8 µg/ml
Concentration en CPA (Solubilité du CPA en présence de γCD) ([5]; γCD 12,5 mM): 195,2 µg/ml
Conc. t1 mois ([6]; CPA concentration after 1 month at 25°C, alkaline pH 8 to 9): 0,4 µg/ml
Conc. t0 [6, 7]: 2,3 µg/ml
Pourcentage CPA après 1 mois ([6]; after 1 month at 25°C, alkaline pH 8 to 9, 43800 min): 17,6%
Substance: acétate de cyprotérone [CPA]
solubilité de l'acétate de cyprotérone dans l'eau [3]: ~2 µg/mL
